Measured values taken from patent US11629354B2, “Grain with increased nicotianamine” (The United States of America, as represented by the …, priority 2020, dated 2023).

How the values were obtained:
Format in all cases: in vivo, chicken
intestinal villi = assay: Intraamniotic administration: intestinal functionality (goblet cell number, villi length and width)
Text: (§1) To generate extracts for administration, wheat flours (CE-OsNAS2, hereinafter “biofortified”; and NS, hereinafter “control”) were mixed in dH2O (50 g/L), filtered (600 μm) and centrifuged, and the resulting supernatant was dialyzed (MWCO 12-14 kDa, Medicell International Ltd., London, UK) exhaustively against dH2O (48 hrs). The dialysate was lyophilized, and the resulting powder dissolved in 18MΩ H2O (0.05 g/mL) forming the white wheat flour extracts for intra-amniotic administration. Iron solutions were prepared by combining an Fe standard (1000 μg/mL, 2% HCl, High-Purity Standards, Charleston, S.C., USA) with either 18MΩ H2O (Fe), or 1.6 mM NA (Toronto Research Chemicals Inc., Toronto, Canada) dissolved in 18MΩ H2O (Fe-NA). The Fe-EDTA solution was achieved by combining ferric nitrate (Fe(NO3)3 9H2O, Sigma, St. Louis, Mo., USA) with hydroxyethyl ethylenediamine triacetic acid (H3HEDTA, Sigma, St. Louis, Mo., USA) dissolved in sodium hydroxide (NaOH, Sigma, St. Louis, Mo., USA) to represent an anionic chelate of dissolved NaFeEDTA with final Fe concentration of 77 μM.
For intraamniotic administration, eggs (n=40) containing viable embryos were weighed and randomly assigned to seven groups (n≥5) based on weight distribution. At day 17 of incubation, extracts/Fe solutions (1 mL) were injected into the amniotic fluid via a 21-gauge needle for the seven treatment groups as follows: (1) non-injected (NI); (2) 18MΩ H2O (H2O); (3) Fe solution (Fe); (4) Fe-EDTA solution (Fe-EDTA); (5) Fe-NA solution (Fe-NA); (6) Control white flour extract (C WF); (7) Biofortified white flour extract (B WF) and eggs were subsequently incubated for four days until hatch. Chicks were euthanized by CO2 exposure after hatching and all tissues were collected.
Intestinal functionality and short-chain fatty acid (SCFA) analysis. […] Samples were quantified via GC-MS using a TRACE™ 1310 gas chromatograph (Thermo Fisher Scientific, Waltham, Mass., USA) and a TraceGOLD™ TG-WaxMS A column (Thermo Fisher Scientific, Waltham, Mass., USA).

[1] = test system: Lactobacillus, Bifidobacterium, Escherichia, and Clostridium; assay: Intraamniotic administration: cecal microbial population analysis
Text: To generate extracts for administration, wheat flours (CE-OsNAS2, hereinafter “biofortified”; and NS, hereinafter “control”) were mixed in dH2O (50 g/L), filtered (600 μm) and centrifuged, and the resulting supernatant was dialyzed (MWCO 12-14 kDa, Medicell International Ltd., London, UK) exhaustively against dH2O (48 hrs). The dialysate was lyophilized, and the resulting powder dissolved in 18MΩ H2O (0.05 g/mL) forming the white wheat flour extracts for intra-amniotic administration. Iron solutions were prepared by combining an Fe standard (1000 μg/mL, 2% HCl, High-Purity Standards, Charleston, S.C., USA) with either 18MΩ H2O (Fe), or 1.6 mM NA (Toronto Research Chemicals Inc., Toronto, Canada) dissolved in 18MΩ H2O (Fe-NA). […]
Microbial population analysis. Lactobacillus, Bifidobacterium, Escherichia, and Clostridium density in intraamniotic administration treatment groups was determined as follows: in brief, cecal contents were homogenized with phosphate-buffered saline (PBS, 9 ml), centrifuged and the pellet resuspended in ethylenediaminetetraacetic acid (EDTA, 50 mM) and treated (37° C., 45 min) with lysozyme (10 mg/mL, Sigma Aldrich CO., St. Louis, Mo., USA). […]

[2] = Intraamniotic administration: Fe and Zn concentration in blood serum and liver; conditions: relative to unchelated Fe (Fe) and non-injected groups
Text: as §1
Cornish-cross fertile broiler eggs (n=70) were obtained from a commercial hatchery (Moyer's chicks, Quakertown, Pa., USA) and incubated until hatching. All methods were performed in accordance with the relevant guidelines and regulations. […]

[3] = relative to other treatment groups

Substance: Fe-EDTA
- Intestinal villi width (intestinal villi; relative to all treatment groups): increased significantly
- Goblet cell number in intestinal villi (intestinal villi; [3]): decreased significantly
- Intestinal villi length (intestinal villi; [3]): increased significantly
- abundance of Clostridium in cecum ([1]; relative to C-WF): significantly increased
- abundance of Escherichia in cecum ([1]; relative to Fe-NA): significantly increased
- Blood serum Fe concentration [2]: significantly elevated
